Results on one molecule are retold here after patent US9403756B2, “N-phenyl anthranilic acid derivatives and uses thereof” (Ramot at Tel-Aviv University Ltd., priority 2007, dated 2016).

Holding throughout (type): cell-based
One data set concerns the target T1, Kv11.1 or Herg (Homo sapiens, UniProt Q12809).
T1 construct: expressed in transfected cells; host or cells: Xenopus oocytes
The experiment in a line: Kv channel selectivity, Xenopus oocytes: Kv11.1. The settings on record: 25 μM, −10 mV. Here is the method:
(§1) Voltage-clamp measurements in Xenopus oocytes were performed as previously described.
(§2) The selectivity of NH29 on other relevant Kv channels expressed in Xenopus oocytes was also studied, and the results are summarized in Table 3 below. The specificity of NH29 at 25 μM and 50 μM towards various Kv channels was tested in Xenopus oocytes, except for Kv1.2 which was checked in transfected CHO cells. The current amplitude of the various Kv channels was tested at the indicated voltages and the effect of the drugs was expressed as fold of the control amplitude measured under the same conditions in the absence of the drug. The data in Table 3 are expressed as mean±SEM of 5-7 separate experiments.

A further data set has as its target T2, Kv1.2 (Homo sapiens, UniProt P16389).
T2 construct: expressed in transfected cells; host or cells: CHO cells
The experiment in a line: Kv channel selectivity, transfected CHO cells: Kv1.2. The settings on record: for Fold current amplitude: 0 mV, transfected CHO cells. Here is the method:
Voltage-clamp recordings in CHO cells were performed, using the whole-cell configuration of the patch-clamp technique. Signals were amplified using an Axopatch 200B patch-clamp amplifier (Molecular Devices, Sunnyvale, Calif.), sampled at 2 kHz and filtered at 800 Hz via a 4-pole Bessel low pass filter. Data were acquired using pClamp 9.2 software (Molecular Devices) and an IBM compatible Pentium IV computer in conjunction with a DigiData 1322A interface (Molecular Devices). The patch pipettes were pulled from borosilicate glass (Warner Instrument Corp, USA) with a resistance of 2-5 MΩ. For K^+ current recordings in CHO cells, the intracellular pipette solution contained (in mM): 130 KCl, 1 MgCl2, 5 K2ATP, 5 EGTA, 10 HEPES, adjusted with KOH to pH 7.4 (290 mOsm). The extracellular solution contained (in mM): 140 NaCl, 4 KCl, 1.8 CaCl2, 1.2 MgCl2, 11 glucose, 5.5 HEPES, adjusted with NaOH to pH 7.4 (310 mOsm). Series resistances (3-13 MΩ) were compensated (75-90%) and periodically monitored.
as §2

For another data set, the target named is T3, Kv 4.3 (Homo sapiens, UniProt Q9UK17).
T3 construct: expressed in transfected cells; host or cells: Xenopus oocytes
The experiment in a line: Kv channel selectivity, Xenopus oocytes: Kv4.3. The settings on record: 25 μM, +30 mV. As to the method:
as §1, §2

Another data set concerns the target T4, Kv 7.4 (Homo sapiens, UniProt P56696).
T4 construct: expressed in transfected cells; host or cells: Xenopus oocytes
The experiment in a line: Kv channel selectivity, Xenopus oocytes: Kv7.4. The settings on record: −30 mV. As to the method: as §1, §2

In the next data set the target is T5, TRPV6 channel (Homo sapiens, UniProt Q9H1D0).
T5 construct: expressed in transfected cells; host or cells: CHO cells
T5 sequence (Q9H1D0 whole entry): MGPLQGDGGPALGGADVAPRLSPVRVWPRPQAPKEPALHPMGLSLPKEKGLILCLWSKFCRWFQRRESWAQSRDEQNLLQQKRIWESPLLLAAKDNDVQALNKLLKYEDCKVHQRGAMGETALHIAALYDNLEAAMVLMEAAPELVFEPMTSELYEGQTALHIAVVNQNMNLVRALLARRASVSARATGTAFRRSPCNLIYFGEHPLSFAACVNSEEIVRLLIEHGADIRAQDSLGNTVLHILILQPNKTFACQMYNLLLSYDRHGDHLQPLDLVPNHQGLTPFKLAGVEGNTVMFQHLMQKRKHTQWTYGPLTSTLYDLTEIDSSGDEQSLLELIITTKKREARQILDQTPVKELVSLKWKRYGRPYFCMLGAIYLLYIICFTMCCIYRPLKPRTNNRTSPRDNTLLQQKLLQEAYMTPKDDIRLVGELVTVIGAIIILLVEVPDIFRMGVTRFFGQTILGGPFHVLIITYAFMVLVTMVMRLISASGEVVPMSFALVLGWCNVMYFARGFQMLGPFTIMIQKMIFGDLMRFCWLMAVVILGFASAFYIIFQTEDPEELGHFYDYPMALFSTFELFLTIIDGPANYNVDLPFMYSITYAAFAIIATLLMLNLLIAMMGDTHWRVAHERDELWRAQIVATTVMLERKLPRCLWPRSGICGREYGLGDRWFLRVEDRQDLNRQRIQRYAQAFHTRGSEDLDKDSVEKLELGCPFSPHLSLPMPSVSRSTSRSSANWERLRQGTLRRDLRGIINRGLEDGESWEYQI
The experiment in a line: TRPV6 currents in transfected CHO cells. To be noted: 25 μM NH29; −80 mV to 100 mV. As to the method:
FIGS. 15A-C present the lack of effect of NH29, an exemplary compound according to some embodiments of the present invention, on TRPV6 channel. FIG. 15A presents superimposed representative traces recorded from a CHO cell transfected with TRPV6 before (marked control) during (marked 165s) and after (marked wash) external application of 25 μM NH29, and wherein the membrane potential was stepped from −80 mV to 100 mV for 40 seconds pulse duration (protocol shown in upper panel). The current amplitude was measured at peak current points (marked a 1 at −80 mV and a2 at +100 mV) and plotted as a function of recording time (FIGS. 15B and 15C respectively).
Chinese hamster ovary (CHO) cells were grown in Dulbecco's modified Eagle's medium (DMEM) supplemented with 2 mM glutamine, 10% fetal calf serum and antibiotics. Briefly, 40,000 cells seeded on poly-D-lysine-coated glass coverslips (13 mm diameter) in a 24-multiwell plate were transfected with pIRES-CD8 (0.5 μg) as a marker for transfection, and with Kv7.2 (0.5 μg) and Kv7.3 (0.5 μg) or TRPV1 […] or TRPV6 […].
For electrophysiology, transfected cells were visualized approximately 40 hours following transfection, using anti-CD8 antibody-coated beads. Transfection was performed using Fugene 6 (Roche, Indianapolis Ind., USA) according to the manufacturer's protocol. […]

The target in a further data set is T6, KCNQ2 mutant L197G (Homo sapiens, UniProt O43526, L197G).
T6 construct: expressed in transfected cells
T6 sequence (O43526 whole entry L197G): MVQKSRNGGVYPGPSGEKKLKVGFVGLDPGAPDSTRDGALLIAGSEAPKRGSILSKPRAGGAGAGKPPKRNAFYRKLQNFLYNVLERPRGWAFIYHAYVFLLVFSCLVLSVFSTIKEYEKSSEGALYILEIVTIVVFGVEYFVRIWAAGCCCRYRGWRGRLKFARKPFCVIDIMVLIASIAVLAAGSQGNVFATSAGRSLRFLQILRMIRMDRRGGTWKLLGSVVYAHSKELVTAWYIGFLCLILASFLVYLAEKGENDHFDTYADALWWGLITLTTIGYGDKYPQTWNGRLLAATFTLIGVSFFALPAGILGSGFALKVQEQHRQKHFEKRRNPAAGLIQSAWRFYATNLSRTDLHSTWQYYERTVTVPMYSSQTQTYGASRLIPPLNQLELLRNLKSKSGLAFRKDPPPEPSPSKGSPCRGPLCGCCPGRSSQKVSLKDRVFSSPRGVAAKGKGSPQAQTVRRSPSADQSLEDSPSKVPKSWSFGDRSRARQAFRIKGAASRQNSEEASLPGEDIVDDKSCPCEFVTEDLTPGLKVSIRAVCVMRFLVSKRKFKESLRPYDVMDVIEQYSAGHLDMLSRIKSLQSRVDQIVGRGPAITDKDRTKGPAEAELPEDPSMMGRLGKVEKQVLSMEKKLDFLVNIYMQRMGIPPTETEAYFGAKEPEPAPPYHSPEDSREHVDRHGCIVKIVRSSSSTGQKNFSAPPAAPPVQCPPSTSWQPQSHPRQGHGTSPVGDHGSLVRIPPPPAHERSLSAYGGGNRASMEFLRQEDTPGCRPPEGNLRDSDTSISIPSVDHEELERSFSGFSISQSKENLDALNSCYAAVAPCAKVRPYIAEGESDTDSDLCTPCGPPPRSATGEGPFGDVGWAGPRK
The experiment in a line: KCNQ2 S4 mutant L197G. To be noted: 25 μM NH29 (25 M [sic]). The source says:
(§3) FIGS. 12A-F present the potentiating effect of NH29, an exemplary channel opener compound according to embodiments of the present invention, on selected KCNQ2 mutants. Shown are bar diagrams comparing the potentiating effect of NH29 on native KCNQ2 and KCNQ2 mutants, wherein the mutated amino acids are located at the S1-S2 helix region (FIG. 12A) or S4 helix region (FIG. 12D) and wherein the opener effect is expressed as percent of the control current in the absence of the opener. For comparison, marked as a green line, is the observed current increase of native KCNQ2 by NH29. FIGS. 12B 12C, 12E and 12F present representative traces recorded from CHO cell transfected with the KCNQ2 mutant S122A, S121A, L206C and R201A respectively, before and after external application of 25 μM of NH29 and wherein the membrane potential was stepped from −90 mV holding potential to −40 mV for 1.5 seconds pulse duration.
(§4) Voltage-clamp recordings in CHO cells were performed, using the whole-cell configuration of the patch-clamp technique. Signals were amplified using an Axopatch 200B patch-clamp amplifier (Molecular Devices, Sunnyvale, Calif.), sampled at 2 kHz and filtered at 800 Hz via a 4-pole Bessel low pass filter. […] Series resistances (3-13 MΩ) were compensated (75-90%) and periodically monitored.

A further data set addresses T7, KCNQ2 mutant R201A (Homo sapiens, UniProt O43526, R201A).
T7 construct: expressed in transfected cells; host or cells: CHO cells
The experiment in a line: KCNQ2 S4 mutant R201A in CHO cells. The settings on record: 25 μM NH29 (25 M [sic]).
From the text: as §3, §4

For the next data set, the target named is T8, KCNQ2 mutant S121A (Homo sapiens, UniProt O43526, S121A).
T8 construct: expressed in transfected cells; host or cells: CHO cells
T8 sequence (O43526 whole entry S121A): as the sequence (O43526 whole entry L197G) above, with S121A, G197L counted along it
The experiment in a line: KCNQ2 S1-S2 mutant S121A in CHO cells. The settings on record: 25 μM NH29.
From the text: as §3, §4

The target of another data set is T9, KCNQ2 mutant Y118S (Homo sapiens, UniProt O43526, Y118S).
T9 construct: expressed in transfected cells
T9 sequence (O43526 whole entry Y118S): as the sequence (O43526 whole entry L197G) above, with Y118S, G197L counted along it
The experiment in a line: KCNQ2 mutant Y118S. To be noted: 25 μM NH29. Here is the method: (§5) FIG. 8 presents a bar-graph comparing the potentiating effect of 25 μM of Compound NH29 on various KCNQ subunits and mutants, wherein the opener effect is expressed as percent of the control current in the absence of the opener;

For another data set, the target named is T10, homomeric KCNQ3 channels (Homo sapiens, UniProt O43525).
T10 construct: expressed in transfected cells
T10 sequence (O43525 whole entry): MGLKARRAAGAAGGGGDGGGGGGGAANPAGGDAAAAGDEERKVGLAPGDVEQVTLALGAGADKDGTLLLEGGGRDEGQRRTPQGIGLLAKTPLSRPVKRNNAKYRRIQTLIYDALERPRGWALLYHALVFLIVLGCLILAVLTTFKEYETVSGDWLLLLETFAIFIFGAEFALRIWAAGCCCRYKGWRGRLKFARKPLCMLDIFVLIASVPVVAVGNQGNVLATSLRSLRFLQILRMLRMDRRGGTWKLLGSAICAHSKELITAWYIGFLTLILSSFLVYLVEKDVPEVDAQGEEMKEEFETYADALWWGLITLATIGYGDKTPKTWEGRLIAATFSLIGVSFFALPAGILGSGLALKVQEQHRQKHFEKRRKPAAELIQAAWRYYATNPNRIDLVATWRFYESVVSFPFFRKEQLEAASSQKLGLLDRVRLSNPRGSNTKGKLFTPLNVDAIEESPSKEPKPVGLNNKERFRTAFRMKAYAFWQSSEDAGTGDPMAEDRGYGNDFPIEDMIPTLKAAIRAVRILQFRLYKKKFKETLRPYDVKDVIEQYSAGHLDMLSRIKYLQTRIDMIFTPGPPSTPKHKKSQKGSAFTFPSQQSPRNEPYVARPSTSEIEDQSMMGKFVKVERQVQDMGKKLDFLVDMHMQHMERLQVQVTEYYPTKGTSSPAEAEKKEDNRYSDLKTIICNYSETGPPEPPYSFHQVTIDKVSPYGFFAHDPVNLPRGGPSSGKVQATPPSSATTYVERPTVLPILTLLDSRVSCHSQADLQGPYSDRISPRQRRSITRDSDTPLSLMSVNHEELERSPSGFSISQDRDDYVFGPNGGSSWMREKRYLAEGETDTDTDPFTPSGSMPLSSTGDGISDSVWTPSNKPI
The experiment in a line: Homomeric KCNQ3 channels. The settings on record: 25 μM; very small currents through homomeric KCNQ3. Here is the method:
as §5
FIG. 8 presents a bar-graph comparing the potentiating effect of 25 μM of Compound NH29 on various KCNQ subunits and mutants, wherein the opener effect is expressed as percent of the control current in the absence of the opener.

In the next data set the target is T11, KCNQ2 mutant R214W (Homo sapiens, UniProt O43526, R214W).
T11 construct: expressed in transfected cells; host or cells: CHO cells
T11 sequence (O43526 whole entry R214W): as the sequence (O43526 whole entry L197G) above, with G197L, R214W counted along it
The experiment in a line: KCNQ2 S4 mutant R214W. To be noted: NH29; to a lesser extent.
From the text: as §3, §4

Each structure is given as a SMILES string. “Also recorded” adds a separate entry of the source.

T2 sequence (P16389 whole entry): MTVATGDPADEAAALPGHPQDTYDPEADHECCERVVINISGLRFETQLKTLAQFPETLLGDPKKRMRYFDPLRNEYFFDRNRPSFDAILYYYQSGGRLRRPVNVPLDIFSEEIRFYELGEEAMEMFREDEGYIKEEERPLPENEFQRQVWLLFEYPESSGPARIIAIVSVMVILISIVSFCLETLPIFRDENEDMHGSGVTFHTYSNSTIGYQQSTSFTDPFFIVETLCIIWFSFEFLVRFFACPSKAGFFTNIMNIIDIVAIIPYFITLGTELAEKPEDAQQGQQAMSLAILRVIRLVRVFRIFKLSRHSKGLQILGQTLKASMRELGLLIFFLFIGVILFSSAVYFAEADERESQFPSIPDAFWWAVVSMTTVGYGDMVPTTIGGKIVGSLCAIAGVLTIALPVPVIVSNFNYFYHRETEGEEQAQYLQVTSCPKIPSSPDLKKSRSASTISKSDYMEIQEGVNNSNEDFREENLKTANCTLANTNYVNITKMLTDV
T4 sequence (P56696 whole entry): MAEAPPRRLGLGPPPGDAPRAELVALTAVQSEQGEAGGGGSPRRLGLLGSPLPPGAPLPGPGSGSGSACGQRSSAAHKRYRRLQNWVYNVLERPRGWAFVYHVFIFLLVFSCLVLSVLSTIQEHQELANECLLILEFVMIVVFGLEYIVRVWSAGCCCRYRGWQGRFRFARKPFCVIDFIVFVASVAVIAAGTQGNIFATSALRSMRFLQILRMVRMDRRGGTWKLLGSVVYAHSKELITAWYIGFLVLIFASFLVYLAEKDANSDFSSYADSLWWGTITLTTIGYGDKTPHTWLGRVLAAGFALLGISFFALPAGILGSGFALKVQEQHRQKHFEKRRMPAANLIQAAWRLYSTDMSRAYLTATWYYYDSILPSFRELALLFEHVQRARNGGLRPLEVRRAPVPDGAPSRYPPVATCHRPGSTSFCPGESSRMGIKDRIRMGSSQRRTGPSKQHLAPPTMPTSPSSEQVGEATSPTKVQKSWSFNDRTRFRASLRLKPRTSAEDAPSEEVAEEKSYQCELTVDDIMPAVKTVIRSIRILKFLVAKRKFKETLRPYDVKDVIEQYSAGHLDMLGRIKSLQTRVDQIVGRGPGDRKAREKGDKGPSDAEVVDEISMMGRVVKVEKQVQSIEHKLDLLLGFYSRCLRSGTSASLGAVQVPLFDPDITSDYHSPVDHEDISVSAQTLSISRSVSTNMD
T1 sequence (Q12809 whole entry): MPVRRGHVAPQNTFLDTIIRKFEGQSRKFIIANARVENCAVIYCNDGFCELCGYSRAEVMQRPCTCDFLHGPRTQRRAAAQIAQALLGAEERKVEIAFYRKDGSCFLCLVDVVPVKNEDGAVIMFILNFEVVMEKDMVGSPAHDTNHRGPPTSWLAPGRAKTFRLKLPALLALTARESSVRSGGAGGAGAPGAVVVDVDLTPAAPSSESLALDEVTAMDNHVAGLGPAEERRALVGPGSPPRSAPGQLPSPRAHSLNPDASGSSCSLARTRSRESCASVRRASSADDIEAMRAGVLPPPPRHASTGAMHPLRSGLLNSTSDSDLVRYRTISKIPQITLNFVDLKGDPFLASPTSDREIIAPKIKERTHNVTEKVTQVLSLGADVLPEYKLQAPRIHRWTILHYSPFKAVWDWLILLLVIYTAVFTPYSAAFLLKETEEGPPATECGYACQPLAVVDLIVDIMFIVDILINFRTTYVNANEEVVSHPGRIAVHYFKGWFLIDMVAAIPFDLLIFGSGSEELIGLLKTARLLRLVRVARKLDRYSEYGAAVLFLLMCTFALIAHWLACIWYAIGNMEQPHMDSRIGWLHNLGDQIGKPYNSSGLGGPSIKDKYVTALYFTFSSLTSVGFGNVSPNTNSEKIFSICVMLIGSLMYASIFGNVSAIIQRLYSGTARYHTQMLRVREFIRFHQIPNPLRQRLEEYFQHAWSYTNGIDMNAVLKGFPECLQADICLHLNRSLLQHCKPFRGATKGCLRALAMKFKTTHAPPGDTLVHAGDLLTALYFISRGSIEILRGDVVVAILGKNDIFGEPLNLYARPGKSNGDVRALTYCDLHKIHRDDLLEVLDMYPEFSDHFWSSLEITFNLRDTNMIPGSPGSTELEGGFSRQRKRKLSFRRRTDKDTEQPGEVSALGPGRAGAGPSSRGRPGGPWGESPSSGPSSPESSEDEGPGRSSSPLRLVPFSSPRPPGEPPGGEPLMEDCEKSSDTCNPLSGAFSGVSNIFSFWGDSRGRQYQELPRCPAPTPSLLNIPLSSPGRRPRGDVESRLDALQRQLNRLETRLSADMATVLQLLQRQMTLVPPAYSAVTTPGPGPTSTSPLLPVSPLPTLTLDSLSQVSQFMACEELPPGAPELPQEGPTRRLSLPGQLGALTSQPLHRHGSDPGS
T7 sequence (O43526 whole entry R201A): as the sequence (O43526 whole entry L197G) above, with G197L, R201A counted along it

`O=C(Cc1cc([N+](=O)[O-])cc([N+](=O)[O-])c1Nc1c(Cl)cc([N+](=O)[O-])cc1Cl)NCCO` [NH29]: the Fold current amplitude was determined as 1.1 ± 0.02 fold on Kv11.1 or Herg; 0.9 ± 0.01 fold on Kv1.2 (25 μM); 0.66 ± 0.03 fold on Kv1.2 (50 μM); 1.1 ± 0.04 fold at Kv 4.3; 1.0 ± 0.12 fold at Kv 7.4 (25 μM); 0.9 ± 0.04 fold at Kv 7.4 (50 μM). Moreover, at Kv1.2 (CHO, 50 μM, read-out: inhibition of Kv1.2 current), the inhibition (commonly the drop in the measured response relative to a control, in per cent) at 50 µM stood at 34%. For the same molecule, at TRPV6 channel, the “modulation of TRPV6 current” value was “lack of modulation; also recorded: no similar inhibition of TRPV6 was observed”. For the same molecule, the “fold enhancement of current” value on KCNQ2 mutant L197G stood at 1.5 fold; at KCNQ2 mutant R201A, 1.2 fold. Besides, the “fold activation of current” value on KCNQ2 mutant S121A worked out at 2 fold. Also, the “fold potentiation of current” value on KCNQ2 mutant Y118S came out at 2.1 fold. Also, the “opening activity on homomeric KCNQ3 channels” value at homomeric KCNQ3 channels is “no opening activity was detected”. For the same molecule, the “sensitivity to the activating effect compared to wild-type Kv7.2” value at KCNQ2 mutant R214W is recorded as “significantly less sensitive”.
